According to patent US20150004134A1, “TREATMENT OF CANCER WITH HETEROCYCLIC INHIBITORS OF GLUTAMINASE” (Calithera Biosciences, Inc., priority 2012, published 2015):
pIC50: −log10 of the molar value.

test system: P493-6 (myc "on") cells; assay: Cell Proliferation Assay; format: cell-based; conditions: P493-6, 72 h, read-out: Cell prolif P493 72 h IC50, P493-6 cells, 72 h
In short: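 Read-out: either Cell Titer Glo or Guava Viacount flow analysis after 72 h compound treatment of myc-on P493-6 cells (10,000/well, RPMI with 10% FBS) at 37 °C. DMSO held at 0.5% final.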

| SMILES | pIC50 |
| --- | --- |
| C[C@@](O)(C(=O)NCc1cccc(CC(=O)Nc2nnc(CCCCc3ccc(NC(=O)Cc4ccccc4)nn3)s2)c1)C(F)(F)F [Compound 477] | 7.82 |
| O=C(O)Cc1cccc(OCC(=O)Nc2nnc(CCCCc3ccc(NC(=O)Cc4ccccc4)nn3)s2)c1 [Compound 627] | 6.07 |
| O=C(Cc1ccccc1F)Nc1ccc(CCCCc2nnc(NC(=O)Cc3ccccc3F)s2)nn1 [Compound 534] | 7.36 |
| CCNC(=O)OC(C)c1cccc(CC(=O)Nc2ccc(CCCCc3nnc(NC(=O)Cc4ccccc4)s3)nn2)c1 (stereo not shown) [Compound 610] | 7.96 |
| COC(=O)Cc1cccc(OCC(=O)Nc2nnc(CCCCc3ccc(NC(=O)Cc4ccccc4)nn3)s2)c1 [Compound 628] | 6.77 |
| COc1ccccc1CC(=O)Nc1nnc(CCCCc2ccc(NC(=O)Cc3ccccc3Cl)nn2)s1 [Compound 531] | 7.38 |
| CC(C(=O)Nc1nnc(CCCCc2ccc(NC(=O)Cc3cccc(CNC(=O)CC(O)C(F)(F)F)c3)nn2)s1)c1ccccc1 (stereo not shown) [Compound 606] | 7.35 |
| O=C(Cc1ccccc1)Nc1ccc(CCCCc2nnc(NC(=O)Cc3cccc(Cl)c3F)s2)nn1 [Compound 545] | 7.34 |
| CC(=O)N1Cc2cccc(CC(=O)Nc3nnc(CCCCc4ccc(NC(=O)Cc5ccccc5)nn4)s3)c2C1 [Compound 651] | 7.43 |
| CNCc1cccc(CC(=O)Nc2nnc(CCCCc3nnc(NC(=O)Cc4ccccc4)s3)s2)c1 [Compound 393] | 6.05 |
| Cc1ccccc1CC(=O)Nc1nnc(CCCCc2ccc(NC(=O)Cc3ccccc3Cl)nn2)s1 [Compound 535] | 7.05 |
| O=C(Cc1ccccc1)Nc1ccc(CCCCc2nnc(NC(=O)C(O)c3ccc(-c4ccccc4)cc3OCCO)s2)nn1 (stereo not shown) [Compound 504] | 6.92 |
| CC(NC(=O)OC(C)(C)C)c1cccc(CC(=O)Nc2nnc(CCCCc3ccc(NC(=O)Cc4ccccc4)nn3)s2)c1 (stereo not shown) [Compound 541] | 8.22 |
| CS(=O)(=O)Cc1cccc(CC(=O)Nc2nnc(CCCCc3ccc(NC(=O)Cc4ccccc4)nn3)s2)c1 [Compound 634] | 7.32 |
| O=C(CN1CCOCC1)NCc1ccc(CC(=O)Nc2nnc(CCCCc3ccc(NC(=O)Cc4ccccc4)nn3)s2)cc1 [Compound 442] | 7.60 |
| CC(C)Cc1ccc(C(C)C(=O)Nc2nnc(CCCCc3ccc(NC(=O)Cc4ccccc4)nn3)s2)cc1 (stereo not shown) [Compound 557] | 6.92 |
| CC(=O)Nc1nnc(CCCCc2ccc(NC(=O)Cc3cccc(CNC(=O)OC(C)(C)C)c3)nn2)s1 [Compound 491] | 7.64 |
| CC(C(=O)Nc1nnc(CCCCc2ccc(NC(=O)Cc3cccc(CNC(=O)OC(C)(C)C)c3)nn2)s1)c1ccccc1 (stereo not shown) [Compound 489] | 7.64 |
| CC(NC(=O)OC(C)(C)C)c1cc(CC(=O)Nc2nnc(CCCCc3ccc(NC(=O)Cc4ccccc4)nn3)s2)ccc1F (stereo not shown) [Compound 653] | 8.00 |

same assay, conditions: P493-6, 72 h, read-out: Cell prolif P493 72 h IC50, P493 cells, 72 h

| SMILES | pIC50 |
| --- | --- |
| O=C(Nc1nnc(CCCCc2nnc(NC(=O)C3(c4ccccc4)CC3)s2)s1)C1(c2ccccc2)CC1 [Compound 168] | < 4.30 |
| O=C(Nc1nnc(CCCCc2nnc(NC(=O)[C@@H](O)c3ccccc3Cl)s2)s1)[C@@H](O)c1ccccc1Cl [Compound 210] | 6.38 |
| O=C(Nc1nnc(CCSCCc2nnc(NC(=O)C3CCCC3)s2)s1)C1CCCC1 [Compound 40] | 6.25 |
| O=C(Cn1ccc2ccccc21)Nc1nnc(CCSCCc2nnc(NC(=O)Cn3ccc4ccccc43)s2)s1 [Compound 213] | 5.36 |
| O=C(Cc1ccccc1CO)Nc1nnc(CCSCCc2nnc(NC(=O)Cc3ccccc3CO)s2)s1 [Compound 181, N,N′-(5,5′-(thiobis(ethane-2,1-diyl))bis(1,3,4-thiadiazole-5,2-diyl))bis(2-(2-(hydroxymethyl)phenyl)acetamide)] | 4.52 |
| CCCC(=O)OCN(C(=O)Cc1ccccc1)c1nnc(CCSCCc2nnc(N(COC(=O)CCC)C(=O)Cc3ccccc3)s2)s1 [Compound 8] | 5.80 |
| O=C(Nc1nnc(CCCCc2nnc(NC(=O)C3(C(F)(F)F)CC3)s2)s1)C1(C(F)(F)F)CC1 [Compound 62] | 4.72 |
| O=C(CC1CCCC1)Nc1nnc(CCSCCc2nnc(NC(=O)CC3CCCC3)s2)s1 [Compound 58] | 5.43 |
| COc1ccc(Cl)c(CC(=O)Nc2nnc(CCCCc3nnc(NC(=O)Cc4ccccc4)s3)s2)c1F [Compound 343] | 6.60 |
| CC[C@](O)(C(=O)Nc1nnc(CCCCc2nnc(NC(=O)[C@@](O)(CC)c3ccccc3)s2)s1)c1ccccc1 [Compound 143] | 5.66 |
| CC(C)(C)OC(=O)Nc1cccc(CC(=O)Nc2nnc(CCSCCc3nnc(NC(=O)Cc4cccc(NC(=O)OC(C)(C)C)c4)s3)s2)c1 [Compound 98] | 5.41 |
| O=C(Cc1ccccc1)Nc1ccc(CCCCc2nnc(NC(=O)C(OC(=O)CCN3CCOCC3)c3cccc(Cl)c3)s2)nn1 (stereo not shown) [Compound 389] | 7.49 |
| CC(C)[C@H](NC(=O)OC(C)(C)C)C(=O)Nc1nnc(CCSCCc2nnc(NC(=O)[C@@H](NC(=O)OC(C)(C)C)C(C)C)s2)s1 [Compound 34] | < 4.30 |
| CC(C)[C@H](NC(=O)OC(C)(C)C)C(=O)Nc1nnc(CCSCCc2nnc(NC(=O)Cc3ccccc3)s2)s1 [Compound 33] | 5.28 |
| O=C(CC1CCCCC1)Nc1nnc(CCSCCc2nnc(NC(=O)CC3CCCCC3)s2)s1 [Compound 48] | 6.38 |
| CN(C)c1ccc(CC(=O)Nc2nnc(CCCCc3nnc(NC(=O)Cc4ccc(N(C)C)cc4)s3)s2)cc1 [Compound 164] | 6.89 |
| O=C(Nc1nnc(CCCCc2nnc(NC(=O)C3Cc4cc(Br)ccc4O3)s2)s1)C1Cc2cc(Br)ccc2O1 (stereo not shown) [Compound 122] | 4.37 |
| O=C(Cc1ccccc1)Nc1nnc(CCCCc2nnc(NC(=O)[C@@H]3CCCC[C@H]3C(O)c3ccccc3)s2)s1 (stereo partly shown) [Compound 304] | 5.31 |
| O=C(Cc1ccncc1)Nc1nnc(CCSCCc2nnc(NC(=O)Cc3ccncc3)s2)s1 [Compound 361] | < 4.70 |
| CN(C(=O)Cc1ccccc1)c1nnc(CCSCCc2nnc(N(C)C(=O)Cc3ccccc3)s2)s1 [Compound 6] | 5.57 |
| Nc1nnc(CCSCCc2nnc(NC(=O)[C@@H]3CCCN3C(=O)C(F)(F)F)s2)s1 [Compound 23] | < 4.30 |
| O=C(Nc1nnc(CCSCCc2nnc(NC(=O)[C@@H](O)c3ccccc3)s2)s1)[C@@H](O)c1ccccc1 [Compound 93] | 5.70 |
| O=C(Nc1nnc(CCSCCc2nnc(NC(=O)[C@@H]3CCCN3C(=O)C(F)(F)F)s2)s1)[C@@H]1CCCN1C(=O)C(F)(F)F [Compound 22] | < 4.30 |
| O=C1CC(C(=O)Nc2nnc(CCCCc3nnc(NC(=O)C4CC(=O)c5ccccc54)s3)s2)c2ccccc21 (stereo not shown) [Compound 64] | 6.64 |
| Nc1nnc(CCCCc2ccc(NC(=O)Cc3ccccc3)nn2)s1 [Compound 342] | 5.57 |
| O=C(Nc1nnc(CCCCc2nnc(NC(=O)C3Oc4ccccc4O3)s2)s1)C1Oc2ccccc2O1 [Compound 136] | 5.33 |
| O=C(Nc1nnc(CCSCCc2nnc(NC(=O)C3Cc4ccccc4O3)s2)s1)C1Cc2ccccc2O1 (stereo not shown) [Compound 50] | 5.09 |
| COC(=O)C(C(=O)Nc1nnc(CCCCc2nnc(NC(=O)C(C(=O)OC)c3ccccc3)s2)s1)c1ccccc1 (stereo not shown) [Compound 220] | 6.51 |
| CC(C)[C@H](NC(=O)OC(C)(C)C)C(=O)Nc1nnc(CCCCc2nnc(NC(=O)[C@@H](NC(=O)OC(C)(C)C)C(C)C)s2)s1 [Compound 42] | < 4.30 |

same assay, conditions: P493-6, read-out: Cell prolif P493 72 h IC50; P493 cells, 72 h

| SMILES | pIC50 |
| --- | --- |
| O=C(Nc1nnc(CCSCCc2nnc(NC(=O)c3ccccc3)s2)s1)c1ccccc1 [Compound 2] | 6.20 |
